Numbers after ± are expanded uncertainties.
Experiment: xn = mol fraction of the nth substance listed
Conditions: Liquid

CCCCCCCC [octane] + CCO
Conditions	mass density [kg/m3]	viscosity [mPa·s]
273.15 K, x2 = 0.095	713.3 ± 9.3	0.6185 ± 0.024
273.15 K, x2 = 0.192	715.9 ± 9.3	0.6401 ± 0.024
273.15 K, x2 = 0.294	719.6 ± 9.2	0.698 ± 0.025
273.15 K, x2 = 0.399	725.5 ± 9	0.7603 ± 0.026
273.15 K, x2 = 0.496	732.2 ± 8.9	0.8635 ± 0.027
273.15 K, x2 = 0.602	740.1 ± 8.7	0.9516 ± 0.029
273.15 K, x2 = 0.691	752 ± 8.4	1.103 ± 0.031
273.15 K, x2 = 0.807	763.9 ± 8.1	1.262 ± 0.033
273.15 K, x2 = 0.911	781 ± 7.7	1.459 ± 0.036
275.65 K, x2 = 0.095	709.2 ± 9.4	0.6003 ± 0.023
275.65 K, x2 = 0.192	713.9 ± 9.3	0.6206 ± 0.024
275.65 K, x2 = 0.294	719.5 ± 9.2	0.6743 ± 0.025
275.65 K, x2 = 0.399	723.4 ± 9.1	0.7329 ± 0.025
275.65 K, x2 = 0.496	731.5 ± 8.9	0.828 ± 0.027
275.65 K, x2 = 0.602	738 ± 8.7	0.9122 ± 0.028
275.65 K, x2 = 0.691	749.9 ± 8.4	1.054 ± 0.03
275.65 K, x2 = 0.807	761.7 ± 8.2	1.203 ± 0.032
275.65 K, x2 = 0.911	778.9 ± 7.8	1.389 ± 0.035
278.15 K, x2 = 0.095	707.2 ± 9.5	0.583 ± 0.023
278.15 K, x2 = 0.192	711.8 ± 9.4	0.6019 ± 0.023
278.15 K, x2 = 0.294	717.2 ± 9.2	0.652 ± 0.024
278.15 K, x2 = 0.399	721.3 ± 9.1	0.7069 ± 0.025
278.15 K, x2 = 0.496	729.4 ± 8.9	0.7951 ± 0.026
278.15 K, x2 = 0.602	735.9 ± 8.8	0.8751 ± 0.027
278.15 K, x2 = 0.691	747.8 ± 8.5	1.008 ± 0.029
278.15 K, x2 = 0.807	759.7 ± 8.2	1.148 ± 0.031
278.15 K, x2 = 0.911	776.8 ± 7.8	1.323 ± 0.034
280.65 K, x2 = 0.095	705.1 ± 9.5	0.5664 ± 0.023
280.65 K, x2 = 0.192	708.5 ± 9.4	0.5841 ± 0.023
280.65 K, x2 = 0.294	714.8 ± 9.3	0.6308 ± 0.024
280.65 K, x2 = 0.399	719.2 ± 9.2	0.6822 ± 0.025
280.65 K, x2 = 0.496	725.2 ± 9	0.7643 ± 0.026
280.65 K, x2 = 0.602	733.8 ± 8.8	0.8399 ± 0.027
280.65 K, x2 = 0.691	745.7 ± 8.5	0.9555 ± 0.029
280.65 K, x2 = 0.807	757.6 ± 8.3	1.097 ± 0.031
280.65 K, x2 = 0.911	774.7 ± 7.9	1.26 ± 0.033
283.15 K, x2 = 0.095	703 ± 9.6	0.5505 ± 0.023
283.15 K, x2 = 0.192	706.4 ± 9.5	0.5669 ± 0.023
283.15 K, x2 = 0.294	712.5 ± 9.3	0.6105 ± 0.024
283.15 K, x2 = 0.399	717.1 ± 9.2	0.6587 ± 0.024
283.15 K, x2 = 0.496	723.1 ± 9.1	0.7348 ± 0.025
283.15 K, x2 = 0.602	731.7 ± 8.9	0.8067 ± 0.026
283.15 K, x2 = 0.691	743.6 ± 8.6	0.9146 ± 0.028
283.15 K, x2 = 0.807	755.4 ± 8.3	1.047 ± 0.03
283.15 K, x2 = 0.911	772.6 ± 7.9	1.202 ± 0.032
285.65 K, x2 = 0.095	701 ± 9.6	0.5351 ± 0.023
285.65 K, x2 = 0.192	704.3 ± 9.5	0.5505 ± 0.023
285.65 K, x2 = 0.294	710.2 ± 9.4	0.5906 ± 0.023
285.65 K, x2 = 0.399	715 ± 9.3	0.6363 ± 0.024
285.65 K, x2 = 0.496	723.1 ± 9.1	0.707 ± 0.025
285.65 K, x2 = 0.602	729.6 ± 8.9	–

Source: the NIST ThermoML archive (doi:10.1021/je800925v)
